# Reference: publication PMC12064818, “A general assay platform to study protein pharmacology using ligand-dependent structural dynamics” (Nature Communications, 2025)
# Key:
# NLuc = biological target: T1, NLuc (Oplophorus gracilirostris, UniProt Q9GV45, A31E/A60N/A81I/F95D/I117V/K70R/L54V/L99Q/M102K/N193R/P142E/Q151K/Q38R/Q45L/V71I/Y165I); format: biochemical; details: - ATP
# T1 construct: His tag (inferred from IMAC purification); made in house; host or cells: E. coli
# Method in brief: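 Test compounds added to 1 nM NLuc in PBS with 0.05% IGEPAL, ± ATP. Nano-Glo reagent added and incubated 10 min before luminescence read.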
# FLuc-C-HiBiT = biological target: T2, FLuc-C-HiBiT (Photinus pyralis, UniProt P08659); experiment: biochemical; details: enzyme activity, 10 uM ATP; read-out: IC50 or SDR50 (mM) / FLuc E
# T2 construct: firefly luciferase with C-terminal HiBiT tag, E. coli expressed
# T2 sequence (P08659 whole entry, looked up): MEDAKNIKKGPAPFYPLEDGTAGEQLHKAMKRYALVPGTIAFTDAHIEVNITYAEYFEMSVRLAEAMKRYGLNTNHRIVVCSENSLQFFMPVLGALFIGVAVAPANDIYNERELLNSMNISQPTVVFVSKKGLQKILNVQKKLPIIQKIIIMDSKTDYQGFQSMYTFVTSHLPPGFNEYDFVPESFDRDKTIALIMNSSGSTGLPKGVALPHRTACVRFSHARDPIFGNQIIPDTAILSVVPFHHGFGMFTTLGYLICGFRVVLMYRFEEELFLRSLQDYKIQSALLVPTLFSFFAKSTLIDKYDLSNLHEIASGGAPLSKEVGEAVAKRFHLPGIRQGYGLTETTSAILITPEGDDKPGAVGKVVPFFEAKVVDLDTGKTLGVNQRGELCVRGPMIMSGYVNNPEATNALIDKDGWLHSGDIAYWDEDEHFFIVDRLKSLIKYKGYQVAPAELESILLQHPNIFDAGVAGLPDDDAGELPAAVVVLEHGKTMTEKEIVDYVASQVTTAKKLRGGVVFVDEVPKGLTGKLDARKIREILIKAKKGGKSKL
# [1] = biological target: FLuc-C-HiBiT (firefly luciferase) (Photinus pyralis, UniProt P08659, form not given/L550V); experiment: SDR assay, FLuc-C-HiBiT; details: SDR max. response, clade S
# FLuc-C-HiBiT (firefly luciferase), sequence (P08659 2-550 L550V, form open): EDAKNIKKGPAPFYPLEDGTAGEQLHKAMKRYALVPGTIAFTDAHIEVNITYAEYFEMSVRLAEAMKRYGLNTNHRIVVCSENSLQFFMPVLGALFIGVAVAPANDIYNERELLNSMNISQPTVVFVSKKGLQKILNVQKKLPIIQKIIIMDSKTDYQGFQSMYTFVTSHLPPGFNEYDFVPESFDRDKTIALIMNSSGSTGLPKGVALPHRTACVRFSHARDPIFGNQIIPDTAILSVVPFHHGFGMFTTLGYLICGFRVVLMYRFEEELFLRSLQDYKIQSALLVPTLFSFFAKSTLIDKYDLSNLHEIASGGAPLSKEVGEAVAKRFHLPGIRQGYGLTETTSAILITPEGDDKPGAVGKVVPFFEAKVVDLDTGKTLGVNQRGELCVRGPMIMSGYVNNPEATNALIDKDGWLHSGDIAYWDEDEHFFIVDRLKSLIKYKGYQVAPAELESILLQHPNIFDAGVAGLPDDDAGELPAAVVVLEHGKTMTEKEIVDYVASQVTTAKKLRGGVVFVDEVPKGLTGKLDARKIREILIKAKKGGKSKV
# P. pyralis FLuc = P. pyralis FLuc (Photinus pyralis, UniProt P08659); experiment: FLuc enzymatic luminescence assay, P. pyralis FLuc; format: biochemical; details: FLuc enzymatic assay; for Efficacy (%) FLuc E: Clade S follow-up; for IC50: read-out: IC50 or SDR50 (mM) FLuc E
# P. pyralis FLuc, sequence (P08659 whole entry): as the sequence (P08659 whole entry, looked up) above
# Method in brief: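 Runs with and without 10 µM ATP: compounds were pre-incubated with FLuc (1–10 nM, PBS pH 7.4) at ambient temperature, light-protected, for 30–60 min. Luminescence was imaged 5 min after adding 10 µM D-luciferin (final). Inhibition was scaled between DMSO neutral and no-enzyme controls.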
# [2] = biological target: FLuc-C-NLuc (firefly luciferase) (Photinus pyralis, UniProt P08659, form not given/L550V); experiment: SDR assay, FLuc-C-NLuc; details: - ATP
# FLuc-C-NLuc (firefly luciferase), sequence (P08659 2-550 L550V, form open): as the sequence (P08659 2-550 L550V, form open) above
# T1 sequence (Q9GV45 other isoform, or with tags, fused parts or gaps with the stated changes): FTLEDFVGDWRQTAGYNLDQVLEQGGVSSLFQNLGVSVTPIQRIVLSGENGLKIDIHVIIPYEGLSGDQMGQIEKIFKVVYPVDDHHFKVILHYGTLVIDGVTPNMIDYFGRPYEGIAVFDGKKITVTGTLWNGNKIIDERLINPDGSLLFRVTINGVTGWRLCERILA
Compound,Efficacy (%) NLuc (- ATP) (NLuc),IC50 (FLuc-C-HiBiT),"% Activity (max response, + ATP) [1]","% Activity (max response, - ATP) [1]",pIC50 or pSDR50 FLuc E (P. pyralis FLuc),Efficacy (%) FLuc E (P. pyralis FLuc),IC50 (P. pyralis FLuc),Efficacy (%) FLuc-C-NLuc SDR (-ATP) [2],pIC50 or pSDR50 NLuc (- ATP) (NLuc),IC50 (NLuc; read-out: IC50 or SDR50 (mM) NLuc (- ATP))
CC1CCC(NC(=O)C2CCN(C(=O)c3ncn4c3COC(c3ccccc3)C4)CC2)CC1 (stereo not drawn) [NCGC00449768-01],0.00%,0.00248 mM,387.83%,0.00%,5.71,-93.28%,0.00197 mM,0.00%,–,–
CCCCNC(=O)C1CCN(C(=O)c2ncn3c2COC(c2ccccc2)C3)CC1 (stereo not drawn) [NCGC00449772-01],0.00%,0.00624 mM,357.97%,0.00%,5.11,-88.46%,0.00784 mM,0.00%,–,–
COc1ccccc1CNC(=O)C1CCN(C(=O)c2ncn3c2COC(c2ccccc2)C3)CC1 (stereo not drawn) [NCGC00449776-01],0.00%,0.00624 mM,209.84%,0.00%,5.66,-78.77%,0.00221 mM,0.00%,–,–
CCOc1ccccc1CNC(=O)C1CCN(C(=O)c2ncn3c2COC(c2ccccc2)C3)CC1 (stereo not drawn) [NCGC00449779-01],0.00%,0.00313 mM,223.68%,0.00%,5.21,-109.28%,0.00623 mM,0.00%,–,–
CCOc1cccc(CNC(=O)C2CCN(C(=O)c3ncn4c3COC(c3ccccc3)C4)CC2)c1 (stereo not drawn) [NCGC00449780-01],0.00%,0.00785 mM,197.04%,0.00%,4.96,-78.48%,0.0111 mM,0.00%,–,–
O=C(NCc1ccc2c(c1)OCO2)C1CCN(C(=O)c2ncn3c2COC(c2ccccc2)C3)CC1 (stereo not drawn) [NCGC00449781-01],0.00%,0.007 mM,220.59%,0.00%,5.51,-80.20%,0.00312 mM,0.00%,–,–
CSc1ccc(CNC(=O)C2CCN(C(=O)c3ncn4c3COC(c3ccccc3)C4)CC2)cc1 (stereo not drawn) [NCGC00449782-01],-35.74%,0.00624 mM,293.16%,0.00%,5.26,-89.02%,0.00555 mM,0.00%,4.71,0.0197 mM
O=C(NCc1ccccc1F)C1CCN(C(=O)c2ncn3c2COC(c2ccccc2)C3)CC1 (stereo not drawn) [NCGC00449783-01],14.02%,0.00351 mM,339.74%,0.00%,5.41,-77.35%,0.00393 mM,0.00%,–,–
O=C(NCc1ccc(F)cc1Cl)C1CCN(C(=O)c2ncn3c2COC(c2ccccc2)C3)CC1 (stereo not drawn) [NCGC00449789-01],0.00%,0.00881 mM,205.97%,0.00%,5.01,-100.38%,0.00988 mM,0.00%,–,–
O=C(NCc1ccco1)C1CCN(C(=O)c2ncn3c2COC(c2ccccc2)C3)CC1 (stereo not drawn) [NCGC00449791-01],0.00%,0.00248 mM,367.63%,0.00%,5.56,-97.55%,0.00278 mM,0.00%,–,–
O=C(NCc1cccs1)C1CCN(C(=O)c2ncn3c2COC(c2ccccc2)C3)CC1 (stereo not drawn) [NCGC00449792-01],0.00%,0.00248 mM,209.49%,17.67%,5.51,-100.37%,0.00312 mM,0.00%,–,–
